Experimental data taken from patent US7317038B2, “Nerve regeneration promoters containing semaphorin inhibitor as the active ingredient” (Dainippon Sumitomo Pharma Co., Ltd., priority 2000, dated 2008).
Entries after “also recorded” stand apart in the source; their conditions may differ.

How the values were obtained:
Sema3A = target: T1, Sema3A (Mus musculus, UniProt O08665); assay: Collagen gel co-culture: suppression of neurite outgrowth inhibitory action of Sema3A; format: cell-based; set-up: key to suppression of neurite outgrowth inhibitory activity of Sema3A, score / inhibition of neurite outgrowth-inhibitory action of Sema3A, score: neurites outgrew in a complete concentric circular shape just like for the control groups where Sema3A-non-expressing COS7 cells were used, it was scored +++ (a strong inhibitory effect for Sema3A); outgrowth was found almost in a concentric circular shape accompanied with a little suppression of the outgrowth toward the direction of Sema3A-expressing COS cells, it was scored ++; outgrowth toward the direction of Sema3A-expressing COS cells is fairly suppressed to present a crescent shape, it was scored +; outgrowth toward the direction of Sema3A-expressing COS cells was not found at all (no inhibitory effect for Sema3A), it was scored −; conditions: for suppression of neurite outgrowth inhibitory activity of Sema3A, score: Example 5; for inhibition of neurite outgrowth-inhibitory action of Sema3A, score: 2 μg/ml compound, Example 16; for persistent inhibitory action to Sema3A (neurite outgrowth toward Sema3A-expressing COS7 cell clump): collagen gel co-culture, 2 days
T1 construct: expressed in transfected cells; host or cells: COS7
T1 sequence (O08665 21-772): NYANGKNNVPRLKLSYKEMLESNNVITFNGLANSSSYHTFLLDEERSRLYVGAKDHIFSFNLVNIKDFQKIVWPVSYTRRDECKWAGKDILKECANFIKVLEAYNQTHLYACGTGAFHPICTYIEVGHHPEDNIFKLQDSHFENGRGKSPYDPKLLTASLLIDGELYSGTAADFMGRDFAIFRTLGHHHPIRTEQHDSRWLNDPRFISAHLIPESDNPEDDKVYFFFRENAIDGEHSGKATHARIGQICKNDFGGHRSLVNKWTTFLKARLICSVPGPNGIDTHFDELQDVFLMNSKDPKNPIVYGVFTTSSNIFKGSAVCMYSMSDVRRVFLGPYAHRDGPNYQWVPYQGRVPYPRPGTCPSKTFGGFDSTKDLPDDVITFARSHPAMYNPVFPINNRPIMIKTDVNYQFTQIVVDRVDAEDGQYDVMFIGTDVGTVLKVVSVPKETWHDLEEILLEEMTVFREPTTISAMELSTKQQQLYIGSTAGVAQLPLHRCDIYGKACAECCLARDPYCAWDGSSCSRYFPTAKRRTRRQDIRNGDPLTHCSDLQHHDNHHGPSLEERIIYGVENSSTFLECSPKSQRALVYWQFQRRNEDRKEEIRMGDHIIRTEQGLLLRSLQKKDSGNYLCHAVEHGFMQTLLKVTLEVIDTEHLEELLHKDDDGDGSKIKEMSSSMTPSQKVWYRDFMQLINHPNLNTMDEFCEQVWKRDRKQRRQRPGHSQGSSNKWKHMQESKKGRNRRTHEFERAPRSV
Description: Whether the object compounds (SPF-3059-1, M162, A721) have persistent inhibitory action to Sema3A was analyzed by the collagen gel co-culture method (Neuroprotocols 4, 116, 1994) using Sema3A-expressing COS7 cell clumps and 7- or 8-day-old chick embryo dorsal root ganglions. The Sema3A-expressing COS7 cell clumps were generated as follows. 1 μg of Sema3A-expression plasmid was introduced into COS7 cells (100000 cells/35 mm culture plate), which were cultured overnight, with the FuGENE6 transfection reagent (Roche). 2.5 hours after the starting of the transfection, the COS7 cells were collected by trypsinization and centrifugation, and re-suspended in a medium of 200 μl. 20 μl of the cell suspension was placed on the lid of the culture plate (inside) and the lid was turned over, and then the suspension was cultivated for 20 hours (hanging drop culture) (Cell 78, 425, 1994). When the culture was over, aggregated COS7 cells (clump) were collected and trimmed to a diameter of 0.5 mm. The Sema3A-expressing COS7 cell clump and the above-mentioned dorsal root ganglions were placed in parallel at a distance of 0.5 to 1 mm in a 0.2% collagen gel which was then cultivated in a medium containing the aforementioned compounds at various concentrations for 2 days at 37° C. under 5% CO2. Glutaraldehyde was quickly added therein to make the final concentration 1%. The cultures were then left for 1 hour at room temperature so that the tissues were fixed, and the neurite outgrowth was microscopically observed. The results are found in FIG. 4.
When a medium not containing a subject compound was used, neurites were unable to grow towards the COS7 cell clump with the high concentration of Sema3A and grew only to the opposite direction.
In a similar way as in Example 4, suppression of the neurite outgrowth inhibitory activity was analyzed for the compounds, SPF-3059-1, SPF-3059-2 and SPF-3059-5. When the neurites outgrew in a complete concentric circular shape just like for the control groups where Sema3A-non-expressing COS7 cells were used, it was scored +++ (a strong inhibitory effect for Sema3A). When the outgrowth was found almost in a concentric circular shape accompanied with a little suppression of the outgrowth toward the direction of Sema3A-expressing COS cells, it was scored ++. […] When the outgrowth toward the direction of Sema3A-expressing COS cells was not found at all (no inhibitory effect for Sema3A), it was scored −.

COS7 cells = assay: Effect on cell proliferation (MTT); format: cell-based; conditions: Chlorocebus aethiops, COS-7, 48 h, two days, read-out: IC50, inhibitory rate for cell proliferation
Description: COS7 cells were seeded onto a 96-well plate (medium 100 μl/well) at 10000 cells per well. At the same time, SPF-3059-1 of various concentrations was added and the cells were cultivated for two days in the presence of 5% CO2 at 37° C. Each well was then added with 10 μl of MTT solution at 5 mg/ml and cultured for another one hour. Subsequently, the culture supernatant was removed and formazan (an MTT derivative produced in viable cells) accumulated in the cells was dissolved by the addition of 50 μl DMSO and then the absorbance at 570 nm was measured to determine the proliferation of COS7 cells. […] The longitudinal and lateral axes in the figure show cell proliferation and the SPF-3059-1 concentration, respectively. Besides, the standard deviation (n=4) was added to each column.
The same effect on cell proliferation as in Example 9 was examined for the compounds, SPF-3059-1, SPF-3059-2 and SPF-3059-5. The wells with these compounds were served as samples, the wells with PBS were served as control, and the wells for which the experiment was carried out without adding the cells was served as blank. IC50 (μg/ml), the inhibitory rate for cell proliferation, was determined, which is calculated by the equation shown below. The inhibitory rate for cell proliferation (%)=(1−(absorbance of a sample well−absorbance of the blank well)/(absorbance of the control well−absorbance of the blank well))×100

[1] = target: T2, mouse semaphorin 3A (Sema3A) (Mus musculus, UniProt O08665); assay: Suppression of growth cone collapse activity of Sema3A (chick embryo dorsal root ganglions); format: cell-based; conditions: for inhibition of growth cone collapse activity of Sema3A (in words): chick embryo dorsal root ganglions; for IC50: E7 chick embryo dorsal root ganglions, 2 units/ml Sema3A added 1 hour after compound, concentration where collapse rate = (A+B)/2, read-out: IC50 of inhibition of the growth cone collapse activity of Sema3A (converted)
T2 sequence (O08665 21-772): T1 sequence (O08665 21-772)
Description: A 96-well plate (Sumitomo Bakelite Co., ltd. ) pre-coated with polylysine was further coated with laminine (20 μg/ml of laminine, for 1 hour at room temperature). Each well was added with 100 μl of medium (F12 medium containing 10% bovine fetal serum, 20 ng/ml of NGF, 100 units/ml of penicillin and 100 μg/ml of streptomycin) which media were then inoculated with dorsal root nerve ganglions excised from E7 (Embryonic day 7) chick embryo and were cultured for 16 to 20 hours under 5% CO2 and at 37° C. Subsequently, the object compounds were added to media at various concentrations and 2 units/ml of mouse semaphorin 3A (Sema3A) was added after cultivating for 1 hour. The cultures were further incubated for another 1 hour. Glutaraldehyde was quickly added therein after said 1 hour to make the final concentration 1%. The cultures were then left for 15 minutes at room temperature so that the tissue sections were fixed, and collapse rates of the growth cones were microscopically observed. A well with no addition of Sema3A was made the control.
The longitudinal and lateral axes in the figures represent the collapse rate of growth cones and the concentration of compounds, respectively. ●▪▴ show the results when Sema3A was added after the addition of the compounds and ◯[…]Δ show those when Sema3A was not added. Further, IC50 (μg/ml) of the inhibitors were determined by the method comprising: calculating the collapse rate of growth cone (A) % of the negative controls (neither compounds nor Sema3a was added); subsequently calculate the collapse rate of growth cone (B) % of the positive controls (compounds were not added but Sema3a was added); and the concentration was chosen for each compound from the chart where the collapse rate of growth cone met (A+B)/2(%), which was made IC50 level. The followings are the results.

Solubility = format: physicochemical

Row | SMILES | suppression of neurite outgrowth inhibitory activity of Sema3A, score (Sema3A; 0.5 μg/ml compound) | suppression of neurite outgrowth inhibitory activity of Sema3A, score (Sema3A; 1.0 μg/ml compound) | suppression of neurite outgrowth inhibitory activity of Sema3A, score (Sema3A; 2.0 μg/ml compound) | inhibition of neurite outgrowth-inhibitory action of Sema3A, score (Sema3A) | persistent inhibitory action to Sema3A (neurite outgrowth toward Sema3A-expressing COS7 cell clump) (Sema3A) | IC50 (COS7 cells) [µg/mL] | inhibition of growth cone collapse activity of Sema3A (in words) [1] | IC50 [1] [nM] | Solubility (Solubility; methanol, DMSO) | Solubility (Solubility; water, hexane)
1 | CC(=O)c1cc2c(=O)c3cc(O)c(O)cc3oc2c(C(C)=O)c1-c1coc2cc(O)c(O)c(C(=O)O)c2c1=O [SPF-3059-2] | + | ++ | +++ | +++ | persistently inhibited the action of Sema3A | > 100 | inhibit the growth cone collapse activities of Sema3A in a concentration-dependent manner; also recorded: potently inhibit semaphorin |  |  | 
2 | CC(=O)c1cc2c(=O)c3c(C(=O)O)c(O)c(O)cc3oc2c(C(C)=O)c1-c1coc2cc(O)c(O)c(C(=O)O)c2c1=O [SPF-3059-5] | + | ++ | ++ | ++ | persistently inhibited the action of Sema3A | > 300 | inhibit the growth cone collapse activities of Sema3A in a concentration-dependent manner; also recorded: potently inhibit semaphorin | < 173 |  | 
3 | CC(=O)c1c(C)c(C(=O)C2COc3cc(O)c(O)cc3C2=O)cc2c(=O)c3c(C(=O)O)c(O)c(O)cc3oc12 (stereo not shown) [SPF-3059-9] |  |  |  |  |  | > 100 |  | 187 | Soluble | Insoluble
4 | CC(=O)c1cc2c(=O)c3c(C(=O)O)c(O)c(O)cc3oc2c(C(C)=O)c1-c1coc2cc(O)c(O)cc2c1=O [SPF-3059-24] |  |  |  |  |  | > 100 |  | 188 | Soluble | Insoluble
5 | CC(=O)c1cc2c(=O)c3c(C(=O)O)cc(O)cc3oc2c(C(C)=O)c1-c1coc2cc(O)c(O)cc2c1=O [SPF-3059-25] |  |  |  |  |  |  |  | 7750 | Soluble | Insoluble
6 | CC(=O)c1cc2c(=O)c3cc(O)c(O)cc3oc2c(C(C)=O)c1-c1coc2cc(O)c(O)cc2c1=O [SPF-3059-26] |  |  |  |  |  |  |  | 409 | Soluble | Insoluble
7 | CC(=O)c1cc(-c2c(C(C)=O)cc3c(=O)c4c(C(=O)O)c(O)c(O)cc4oc3c2C(C)=O)cc(C(=O)c2cc(O)c(O)cc2O)c1O [SPF-3059-27] |  |  |  |  |  |  |  | 778 | Soluble | Insoluble
8 | CC(=O)c1c(C)c(-c2cc(=O)c3c(C(=O)O)cc(O)cc3o2)cc2c(=O)c3c(C(=O)O)c(O)c(O)cc3oc12 [SPF-3059-28] |  |  |  |  |  |  |  | 3760 | Soluble | Insoluble
9 | COCc1c(-c2cc3c(=O)c4cc(O)c(O)cc4oc3c(C(C)=O)c2C)oc2cc(O)c(O)c(C(=O)O)c2c1=O [SPF-3059-29] |  |  |  |  |  | > 100 |  | 182 | Soluble | Insoluble
10 | CC(=O)c1c(C)c(C(=O)C2COc3cc(O)c(O)cc3C2=O)cc2c(=O)c3cc(O)c(O)cc3oc12 (stereo not shown) [SPF-3059-30] |  |  |  |  |  | > 100 |  | 408 | Soluble | Insoluble
11 | CC(=O)c1c(C)c(C(=O)C2(O)COc3cc(O)c(O)cc3C2=O)cc2c(=O)c3c(C(=O)O)c(O)c(O)cc3oc12 (stereo not shown) [SPF-3059-34] |  |  |  |  |  |  |  | 182 | Soluble | Insoluble
12 | COC(=O)c1cc(O)cc2oc(-c3cc4c(=O)c5c(C(=O)O)c(O)c(O)cc5oc4c(C(C)=O)c3C)cc(=O)c12 [SPF-3059-35] |  |  |  |  |  |  |  | 3660 | Soluble | Insoluble
13 | CC(=O)c1cc(-c2c(C(C)=O)cc3c(=O)c4cc(O)c(O)cc4oc3c2C(C)=O)cc(C(=O)c2cc(O)c(O)cc2O)c1O [SPF-3059-36] |  |  |  |  |  |  |  | 6680 | Soluble | Insoluble
14 | CC(=O)c1c(C)c(-c2oc3cc(O)c(O)c(C(=O)O)c3c(=O)c2Cc2c(C)oc3c(c2=O)COc2cc(O)c(O)cc2-3)cc2c(=O)c3c(C(=O)O)c(O)c(O)cc3oc12 [SPF-3059-37] |  |  |  |  |  |  |  | < 124 | Soluble | Insoluble
15 | CC(=O)c1c(C)c(-c2cc(=O)c3c(C(=O)O)c(O)c(O)cc3o2)cc2c(=O)c3c(C(=O)O)c(O)c(O)cc3oc12 [SPF-3059-39] |  |  |  |  |  |  |  | 182 | Soluble | Insoluble
